The values that follow come from patent US20250275993A1, “GLYCOSYLATION INHIBITORS AS THERAPEUTICS FOR STROKE” (The Regents of the University of California, priority 2022, published 2025).

In one experiment the test system is BCEC. The experiment is described as follows: BCEC transwell migration assay. In kind it is cell-based, bovine. Particulars: ManN at 40 μM. How it is done: HUVECs (passage 6-8) were cultured and serum-starved as described in “Western Blots”. Ten thousand cells in […] of EBM-2 medium were then added to the upper chamber of […] pore size cell culture inserts (Falcon) coated with 0.1% gelatin. The lower compartment was filled with […] EBM-2 medium containing various agents. The plates were incubated at 37° C. to allow migration. After 4 hrs, cells were fixed with 4% PFA for 20 min and then stained with crystal violet (Sigma-Aldrich) for 20 min at RT. Migrated cells on the bottom side of the insert membrane were quantified by counting whole area of the insert at 40× magnification. The experiments were carried out in triplicate and repeated three times. BCEC migration was set up similarly, except that wells were coated with FN, cells were suspended in 1% serum media and migration time was 18-24 hrs.

Another experiment has as its system VEGFR2 on cell surface. As to the kind of experiment: Biotinylation of surface proteins in BCECs. Conditions: ManN-treated BCECs. In kind it is cell-based, bovine. How it is done: BCECs were plated in 10 cm cell culture dishes 3 days prior to the cell surface protein isolation. Cells were washed three times with Dulbecco's PBS with CaCl2 and MgCl2, followed by a 30 min incubation with EZ-Link Sulfo-NHS-SS-Biotin (Pierce, Rockford, IL, USA; 0.5 mg/ml in Dulbecco) on ice. Cells were washed twice with Dulbecco and the non-reacted biotin was blocked with 20 mM glycine for 15 mins. To prevent the reduction of the disulfide bridge in the biotin molecule during the cell lysis process, a 100 μM oxidized glutathione (Sigma-Aldrich, St. Louis, MO) was added in the last wash solution. For cell lysis 500 μL of lysis buffer (2% NP-40, 1% Triton X-100, 10% glycerol, 100 μM oxidized glutathione, EDTA free protease inhibitor tablet (Roche, Mannheim, Germany) in PBS was added to the cells. Lysed cell extracts were scraped off the plates and transferred to an Eppendorf tube followed by incubation on ice on a shaker for 30 mins. The cell extracts were incubated with 30 U of DNase (22° C. 50 mins, Roche, Mannheim, Germany) and centrifuged for 20 mins (20,800×g, at 4° C.) to pellet the insoluble material. The protein concentration of the supernatants was determined. Equal amounts of protein (−2 mg) from each extract were used for cell surface protein isolation. […]

Experiment [1] relates to complex N-glycans of BCECs. As to the kind of experiment: Monosaccharide and sialic acid composition analysis of BCECs. Conditions: fucose 8 hours, mannose 12 hours, galactose 24 hours, Neu5Ac 8 and 24 hours. In kind it is cell-based, bovine. The method, then:
Monosaccharide composition analysis was done using HPAEC-PAD (Thermo-Dionex ICS3000) and nmole amount of each monosaccharide present in 25 μg of protein was calculated. Samples were hydrolyzed using 2 N trifluoroacetic acid (TFA) at 100° C. for 4 hrs. Followed by removal of acid using dry nitrogen flush. To ensure complete removal of acid, samples were co-evaporated twice with 100 μl of 50% isopropyl alcohol (IPA). Finally, the samples were dissolved in Milli-Q water and injected on HPAEC-PAD. Monosaccharide profile was done using Dionex CarboPac PAI column (250 mm×4 mm; with 50 mm×4 mm guard column). An isocratic solvent mixture of 19 mM sodium hydroxide with 0.95 mM sodium acetate was used at a flow rate of 1 ml per minute for 25 mins. Data were acquired using manufacture supplied standard Quad waveform for carbohydrates. All neutral and amino sugars were identified and quantified by comparing with authentic monosaccharide standard mixture consisting of L-fucose, D-galactosamine, D-glucosamine, D-galactose, D-glucose and D-mannosc. Mild acid hydrolysis was used to release sialic acid. Briefly, samples were treated with 2 M acetic acid at 80° C. for 3 hrs followed by removal of excess acid using speed vacuum. […] Known amount of standard Neu5Ac was used to quantify amount of sialic acid in samples.

The next experiment concerns bFGFR 1 or β1 integrin. As to the kind of experiment: Western blot of protein molecular mass in non-endothelial cells. Conditions: 400 μM and 2 mM. Format: cell-based. How it is done:
Cells were allowed to reach-80% confluency in 12-well plates. […] At various time points, plates were taken out of the incubator and kept on ice. Cell monolayers were first washed once with ice-cold PBS before lysis with 250 μI of Pierce RIPA buffer (ThermoFisher Scientific, Rockford, IL) or use 50 mM Tris-HCl (pH 7.6), 150 mM NaCl, 10% Glycerol, 1% NP-40 containing protease/Phosphatase inhibitor cocktail (100×) (Cell signaling, #5872). Lysates were collected and mixed with 4× Bolt LDS Sample Buffer (Novex, Carlsbad, CA) in the presence of Halt protease inhibitors and phosphatase inhibitor cocktail (ThermoFisher scientific, #NP0007). The samples were subjected to SDS-PAGE (Bolt 4-12% Bis-Tris Plus, Invitrogen) using Bolt MES SDS running buffer or NuPAGE 3-8% Tris-Acetate gel using Tris-Acetate SDS running buffer (Novex). HUVECs (passage 6-8) were plated in EBM-2 basal medium (Lonza) with 0.2% FBS. Following overnight culture, cells were serum-starved in EBM-2 medium for 4 hrs prior to treatment with 50 ng/ml of VEGF165 or vehicle controls for various lengths. Equal amounts of protein lysates were analyzed by SDS-PAGE and blotted with the indicated antibodies. Proteins were transferred using Tris-Glycine buffer with 20% Methanol (Proteonomics grade) (Apex BioResearch Products). […]
In general terms: A western blot detects proteins with antibodies after separation by electrophoresis.

For the compound `N[C@H](C=O)[C@@H](O)[C@H](O)[C@H](O)CO` [ManN, 2-Amino-2-deoxy-D-mannose], the “additivity with VEGF in BCEC migration” value in the experiment with BCEC is listed as “significant additivity with VEGF in promoting BCEC migration”. Also, the “amount of VEGFR2 on cell surface” value in the experiment on VEGFR2 on cell surface is recorded as “no changes”. In addition, the “fucose, mannose, galactose and Neu5Ac content” value in experiment [1] is given as “significant decrease”. The “molecular mass change of bFGFR 1 or β1 integrin in non-ECs” value with bFGFR 1 or β1 integrin is recorded as “could induce molecular mass change”.
